≈ marks a conversion by molar mass, not a printed value.
What was measured:
P388 = experiment: Cytotoxicity against mouse P388 cells; format: functional; details: read-out: ED50 (the source's name)
L1210 = experiment: Cytotoxicity against mouse L1210 cells; format: functional; details: read-out: ED50 (the source's name)

Structure (SMILES) | EC50 (P388) | EC50 (L1210)
COC(=O)[C@]12OC[C@]34[C@H]([C@@H](O)[C@@H]1O)[C@@]1(C)C(=O)C(O[C@@H]5O[C@H](CO)[C@@H](O)[C@H](O)[C@H]5O)=C[C@@H](C)[C@@H]1C[C@H]3OC(=O)[C@H](OC(=O)/C=C(\C)C(C)(C)OC(C)=O)[C@@H]24 [Bruceantinoside C] | 2.12 µg/mL (≈ 2.76 µM) | 3.5 µg/mL (≈ 4.55 µM)
O=c1[nH]cc(F)c(=O)[nH]1 [FLUOROURACIL] | 3.72 µg/mL (≈ 28.6 µM) | 1.94 µg/mL (≈ 14.9 µM)
COC(=O)[C@]12OC[C@]34[C@H]([C@@H](O)[C@@H]1O)[C@@]1(C)C=C(O[C@@H]5O[C@H](CO)[C@@H](O)[C@H](O)[C@H]5O)C(=O)[C@@H](C)[C@@H]1C[C@H]3OC(=O)[C@H](OC(=O)/C=C(\C)C(C)(C)OC(C)=O)[C@@H]24 [Yadanzioside G] | 1.25 µg/mL (≈ 1.63 µM) | 2.58 µg/mL (≈ 3.36 µM)
COC(=O)[C@]12OC[C@]34[C@H]([C@@H](O)[C@@H]1O)[C@@]1(C)C(=O)C(O[C@@H]5O[C@H](CO)[C@@H](O)[C@H](O)[C@H]5O)=C[C@@H](C)[C@@H]1C[C@H]3OC(=O)[C@H](OC(=O)/C=C(\C)C(C)C)[C@@H]24 [Yadanzioside N] | 2.24 µg/mL (≈ 3.15 µM) | 4.56 µg/mL (≈ 6.42 µM)
